Measured values from US8163746B2, “Azolecarboxamide derivative” (Astellas Pharma Inc., priority 2006, dated 2012).

What was measured:
trkA receptor = biological target: T1, trkA receptor (Rattus norvegicus, UniProt P35739); assay: Inhibitory activity on enhanced vascular permeability caused by NGF in rat (Evans blue); type: in vivo; conditions: Wistar female rat, 10 mg/kg oral, NGF intracutaneous 60 min after administration, vehicle group set at 100%
T1 construct: from tissue; host or cells: Wistar female rat (SLC), skin of the back, in vivo
T1 sequence (P35739 33-799): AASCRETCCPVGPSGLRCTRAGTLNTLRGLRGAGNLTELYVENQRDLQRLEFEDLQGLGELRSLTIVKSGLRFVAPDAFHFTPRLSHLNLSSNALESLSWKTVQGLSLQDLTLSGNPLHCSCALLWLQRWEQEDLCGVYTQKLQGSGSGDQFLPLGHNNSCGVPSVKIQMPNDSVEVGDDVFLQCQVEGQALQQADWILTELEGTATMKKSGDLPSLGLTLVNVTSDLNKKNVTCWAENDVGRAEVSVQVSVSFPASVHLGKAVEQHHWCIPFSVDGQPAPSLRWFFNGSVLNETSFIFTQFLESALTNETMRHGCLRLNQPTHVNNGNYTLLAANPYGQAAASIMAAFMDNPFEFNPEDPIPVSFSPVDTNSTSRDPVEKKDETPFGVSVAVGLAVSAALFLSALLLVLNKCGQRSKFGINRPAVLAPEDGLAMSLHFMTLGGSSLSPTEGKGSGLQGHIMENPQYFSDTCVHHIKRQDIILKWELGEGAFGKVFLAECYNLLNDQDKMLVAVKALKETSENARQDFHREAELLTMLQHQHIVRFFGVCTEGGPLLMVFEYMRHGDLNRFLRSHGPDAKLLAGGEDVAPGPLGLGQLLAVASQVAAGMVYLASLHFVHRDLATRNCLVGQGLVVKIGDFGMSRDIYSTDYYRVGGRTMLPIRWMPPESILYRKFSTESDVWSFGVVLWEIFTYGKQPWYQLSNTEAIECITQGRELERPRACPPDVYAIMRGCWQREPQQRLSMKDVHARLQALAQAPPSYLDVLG
Experimental: 2. Evaluation of the Inhibitory Activity of the Compound on Enhanced Vascular Permeability Caused by NGF in Rat
The in vivo trkA receptor inhibitory activity of the compound was examined. A Wistar female rat (SLC) were forced to be orally administered with the compound (0.5% methylcellulose solution) 10 mg/3 ml/kg or a vehicle (0.5% methylcellulose solution) 3 ml/kg. Under ether anesthesia performed at 60 min after administration, physiological saline or 1 ug/ml NGF (NGF, mouse derived 2.5S, Alomone) was intracutaneously administered to the back at 50 ul/site, and then immediately a 1% Evans blue solution (dissolved in physiological saline) was administered through caudal vein at 3 ml/kg. At a time point of 10 min after the administration, the skin on the back was taken, and shaken in formamide for 16 hours. After shaking, an absorption of Evans blue extracted with formamide was measured by an absorption meter (wavelength: 620 nm), and the concentration was determined by a calibration curve method. A value obtained by subtracting the concentration of Evans blue at a site administered with physiological saline from the concentration of Evans blue at a site administered with NGF has a function dependent on NGF, and an inhibitory rate of the compound group was determined with a group administered with vehicle being set at 100%. In this test, it was confirmed that the compound of the present invention has an excellent inhibitory activity on enhanced vascular permeability caused by NGF in rat.

[1] = biological target: T2, Human nerve growth factor receptor (Homo sapiens, UniProt P04629); assay: Receptor inhibitory activity using cells expressing a nerve growth factor receptor (NGF-dependent intracellular Ca increase, FLIPR); type: cell-based; conditions: HEK293 cells stably expressing Human nerve growth factor receptor; NGF about 100 to 150 ng/ml; Ca concentration change
T2 construct: expressed in transfected cells
T2 sequence (P04629 33-796): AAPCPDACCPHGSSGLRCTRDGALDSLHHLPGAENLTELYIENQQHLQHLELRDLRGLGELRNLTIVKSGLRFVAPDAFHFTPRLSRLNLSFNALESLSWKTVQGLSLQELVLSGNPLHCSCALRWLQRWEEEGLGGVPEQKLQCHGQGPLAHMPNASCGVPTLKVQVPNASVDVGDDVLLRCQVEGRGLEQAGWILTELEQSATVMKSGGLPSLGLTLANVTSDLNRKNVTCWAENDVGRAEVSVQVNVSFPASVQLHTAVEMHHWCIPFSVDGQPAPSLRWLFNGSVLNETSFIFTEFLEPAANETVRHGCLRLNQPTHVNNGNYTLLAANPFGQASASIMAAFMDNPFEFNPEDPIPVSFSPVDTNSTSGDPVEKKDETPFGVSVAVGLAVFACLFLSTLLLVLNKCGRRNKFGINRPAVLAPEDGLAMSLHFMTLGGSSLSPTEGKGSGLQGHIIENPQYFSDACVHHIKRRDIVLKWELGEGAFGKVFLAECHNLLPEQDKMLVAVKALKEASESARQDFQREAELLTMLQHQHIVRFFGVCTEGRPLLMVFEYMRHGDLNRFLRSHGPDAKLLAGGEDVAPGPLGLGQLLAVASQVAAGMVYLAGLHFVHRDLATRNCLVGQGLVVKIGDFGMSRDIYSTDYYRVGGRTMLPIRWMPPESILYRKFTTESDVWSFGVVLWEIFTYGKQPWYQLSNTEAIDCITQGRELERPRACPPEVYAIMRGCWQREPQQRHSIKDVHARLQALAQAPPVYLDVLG
Experimental: 1. Experiment to Measure a Receptor Inhibitory Activity Using Cells Expressing a Nerve Growth Factor Receptor
The nerve growth factor receptor inhibitory activity was measured by using the increase in a ligand-dependent calcium concentration in cells as an index. HEK293 cells (American Type Culture Collection) that stably expressed Human nerve growth factor receptor were dispensed onto a 96-well poly-D-lysine-coated plate (Product Name: Biocoat, PDL96W black/clear, by Nippon Becton Dickinson) to a 2×10^4 cells/well at the day before the experiment, and incubated overnight at 37° C. under 5% carbon dioxide (CO2) in a culture medium containing 10% fetal bovine serum (FBS) (Product Name: DMEM, Invitrogen Corporation). The culture medium was replaced by a washing solution: a Hank's balanced salt solution)(HBSS), containing a 1.5 μM loading buffer (fluorescent indicator (Product Name: Fluo-4-AM, […].)), 20 mM 2-[4-(2-hydroxyethyl)-1-piperazinyl]ethanesulfonic acid (HEPES)-sodium hydroxide (NaOH), 2.5 mM Probenecid, 0.1% bovine serum albumin (BSA), and left to stand at room temperature for 3 hours, and the cells were washed using a plate washer (Product Name: ELx405, BIO-TEK instrument Corporation) in which a washing solution had been set up. The compound that had been preliminarily dissolved and diluted in a washing solution was added thereto, and set up in a system for measuring a calcium (Ca) concentration in a cell (Product Name: FLIPR, Molecular Devices Corporation). After 5 minutes, a nerve growth factor (NGF, mouse derived 2.5S, Alomone) corresponding on 80% stimulation of a maximum response was added (to a final concentration of about 100 to 150 ng/ml) to measure the change in Ca concentrations in cells. A difference between a maximum value and a minimum value in Ca concentrations in cells was determined, and kept as measurement data. With a response upon addition of NGF being set at 0%, and a response upon addition of a buffer being set at 100%, the concentration causing 50% inhibition was determined as an IC50 value. In the table, Ex represents Compound No. of Examples as described later. From the results of this test, it was confirmed that the compound of the present invention has a nerve growth factor receptor inhibitory activity.

[2] = test system: CPA-induced urinary frequency in rat; assay: Effects on cyclophosphamide (CPA)-induced urinary frequency in rat; type: in vivo; conditions: Wistar female rat, 2 days after CPA, value before administration = 100%
Experimental: 3. Effects of the Compound on the Cyclophosphamide (CPA)-Induced Urinary Frequency in Rat
CPA (150 mg/5 ml/kg) was intraperitoneally administered to a Wistar female rat (Charles river laboratories), and after two days, the experiment was carried out. It was forced to be orally administered with distilled water (30 ml/kg), and then placed in a metabolic cage, and the voided urine weight and the urination frequency were continuously measured for 1 hour. The compound (0.5% methylcellulose solution) 3 or 10 mg/5 ml/kg, or a vehicle (0.5% methylcellulose solution) 5 ml/kg was orally administered, and after 5 to 30 min, the urinary functions were measured after loading water in the same manner as described above. A total voided urine weight was divided by the total urination frequency to determine an effective bladder capacity. With the value before administration of the compound being set at 100%, a rate of change in the effective bladder capacity caused by administration of the compound was determined.
In this test, at 2 days after CPA treatment, the effective bladder capacity was decreased (about 0.5 ml), indicating urinary frequency condition.

[3] = test system: acetic acid-induced painful behaviors in rat; assay: Effects on acetic acid-induced painful behaviors (writhing) in rat; type: in vivo; conditions: Wistar male rat; 10 mg/kg oral 5 min before 1% acetic acid i.p.; writhing frequency 10-20 min; vehicle group = 100%
Experimental: 4. Effects of the Compound on Acetic Acid-Induced Painful Behaviors in Rat
1% Acetic acid (99% distilled water) was intraperitoneally administered to a Wistar male rat (Charles river laboratories), and the frequency of pain behavior (writhing) between 10 min and 20 min after administration was measured. The compound (10 mg/5 ml/kg) or a vehicle (0.5% methylcellulose solution) was orally administered 5 mins before the administration of 1% acetic acid. With the frequency of the group administered with the vehicle being set at 100%, the inhibition rate of the writhing behavior frequency by the compound administration was determined.

[4] = dose 10 mg/kg oral, evaluation 30-90 min after administration
[5] = dose 3 mg/kg oral, evaluation 5-65 min after administration

Inhibition rate (trkA receptor)	IC50 [1]	SMILES	Change rate of effective bladder capacity [2, 4]	Inhibition rate [3]	Change rate of effective bladder capacity [2, 5]
93%	11 nM	NC(=O)CN1CCN(c2ccccc2NC(=O)c2csc(N3CCOCC3)n2)CC1 [Example 151]	147%	53%	
90%	2.6 nM	NC(=O)CN1CCN(c2c(F)cccc2NC(=O)c2csc(N3CCC(O)CC3)n2)CC1 [Example 311]			
97%	8.8 nM	COCCN(C)c1nc(C(=O)Nc2ccccc2N2CCN(CC(N)=O)CC2)cs1.Cl [Example 356, N-{2-[4-(2-amino-2-oxoethyl)-piperazin-1-yl]phenyl}-2-[(2-methoxyethyl)(methyl)amino]-1,3-thiazole-4-carboxamide hydrochloride]	180%		
88%	9.5 nM	COCCN(C)c1nc(C(=O)Nc2cccnc2N2CCC(C(N)=O)CC2)cs1 [Example 380]	152%	44%	
92%	11 nM	COCCN(C)c1nc(C(=O)Nc2cccnc2N2CCN(CC(N)=O)CC2)cs1 [Example 382]		38%	134%
85%	12 nM	Cl.NC(=O)C1CCN(c2ncccc2NC(=O)c2coc(N3CCOCC3)n2)CC1 [Example 501, 1-(3-{[(2-morpholin-4-yl-1,3-oxazol-4-yl)carbonyl]amino}pyridin-2-yl)piperidine-4-carboxamide hydrochloride]	157%	55%	
	2.4 nM	NC(=O)C1CCN(c2ccccc2NC(=O)c2csc(-c3ccoc3)n2)CC1 [Example 662, 1-[2-({[2-(3-furyl)-1,3-thiazol-4-yl]carbonyl}amino)phenyl]-4-piperidine carboxamide]			
95%	4.6 nM	NC(=O)CN1CCN(c2ccc(F)cc2NC(=O)c2coc(C3CCOCC3)n2)CC1 [Example 942]			153%
